Patent US10036033B2, “Method of inhibiting sprouting in plant tissues” (Academia Sinica, priority 2014, dated 2018)

How the values were obtained:
[1] = tested on: ABA induced gene expression (ABRC1-GUS) in rice aleurone cells; assay: ABRC1-GUS reporter expression assay in transgenic rice embryoless half-seeds (aleurone cells); type: cell-based, rice (Oryza sativa); settings: wild type rice aleurone cells; 20 μM ABA, 24 h
Protocol: FIG. 1. FCA-overexpression enhances and FCA-RNAi suppresses ABA induced gene expression in rice aleurone cells. The reporter construct (A) ABRC1-GUS was bombarded into (B) FCA-overexpression and (C) FCA-RNAi transgenic rice embryoless half-seeds. Bars indicate GUS activities ±SE after 24 h of incubation of bombarded seeds in shooting buffer with or without 20 μM ABA.
Rice (Oryza sativa) cultivar Tainung 67 was used in this study. Rice seedlings were grown in Kimura B nutrient solution at 28° C., 16L/8D photoperiod. Barley seeds (Hordeum vulgare L. cv. Himalaya) were used in all the transient assays. Embryoless half-seeds were prepared as described (Gomez-Cadenas et al., 2001).
Rice FCA cDNA clones (GenBank Accession Numbers AK073225 and AK058419) were supplied by Rice Genome Resource Center (RGRC) of National Institute of Agricultural Sciences (NIAS). Coding region of rice FCA was amplified from FCA cDNA clone by PCR. Coding region of barley FCA was amplified from total RNA of barley seed by RT-PCR. For underexpression of FCA, nucleotide number 307-822 of rice FCA ORF and nucleotide number 1532-1945 of barley FCA ORF were amplified. All PCR products were T/A cloned into pCR8/GW/TOPO vector (Invitrogen). Sequences and orientations of inserts in vector were confirmed by sequencing. […]

[2] = tested on: ABA induced gene expression (ABRC1-GUS) in barley aleurone cells; assay: Transient expression assay, ABRC1-GUS reporter, barley aleurone cells; type: cell-based, barley (Hordeum vulgare); settings: 20 μM ABA, 24 h
Excerpt: FIG. 2. FCA alters ABA but not GA pathway in barley aleurone cells. (A) Schemes of the reporter and effector constructs used in transient expression assays. (B) FCA-overexpression enhances and (D) FCA-RNAi suppresses ABA induced gene expression in barley aleurone cells. (C and E) GA induced gene expression is not affected. The reporter construct ABRC1-GUS or Amy32b-GUS was cobombarded into barley embryoless half-seeds with (+) or without (−) effector constructs Ubi-HvFCA-RNAi or Ubi-HvFCA. Bars indicate GUS activities ±SE after 24 h of incubation of bombarded embryoless half-seeds in shooting buffer with or without 20 μM ABA or 1 μM GA.
FIG. 9. FCA-overexpression enhances ABA induced gene expression in barley aleurone cells. (A) Schemes of the reporter and effector constructs used in transient expression assays. (B) The reporter construct ABRC1-GUS was cobombarded into barley embryoless half-seeds with (+) or without (−) effector constructs Ubi-HvFCA or Ubi-OsFCA. Bars indicate GUS activities ±SE after 24 h of incubation of bombarded embryoless half-seeds in shooting buffer with (+) or without (−) 10 μM ABA.
Rice (Oryza sativa) cultivar Tainung 67 was used in this study. Rice seedlings were grown in Kimura B nutrient solution at 28° C., 16L/8D photoperiod. Barley seeds (Hordeum vulgare L. cv. Himalaya) were used in all the transient assays. […]

VP1 = target: T1, VP1 (Zea mays, UniProt P26307); assay: In planta two-hybrid study; type: binding
T1 sequence (P26307 1-691): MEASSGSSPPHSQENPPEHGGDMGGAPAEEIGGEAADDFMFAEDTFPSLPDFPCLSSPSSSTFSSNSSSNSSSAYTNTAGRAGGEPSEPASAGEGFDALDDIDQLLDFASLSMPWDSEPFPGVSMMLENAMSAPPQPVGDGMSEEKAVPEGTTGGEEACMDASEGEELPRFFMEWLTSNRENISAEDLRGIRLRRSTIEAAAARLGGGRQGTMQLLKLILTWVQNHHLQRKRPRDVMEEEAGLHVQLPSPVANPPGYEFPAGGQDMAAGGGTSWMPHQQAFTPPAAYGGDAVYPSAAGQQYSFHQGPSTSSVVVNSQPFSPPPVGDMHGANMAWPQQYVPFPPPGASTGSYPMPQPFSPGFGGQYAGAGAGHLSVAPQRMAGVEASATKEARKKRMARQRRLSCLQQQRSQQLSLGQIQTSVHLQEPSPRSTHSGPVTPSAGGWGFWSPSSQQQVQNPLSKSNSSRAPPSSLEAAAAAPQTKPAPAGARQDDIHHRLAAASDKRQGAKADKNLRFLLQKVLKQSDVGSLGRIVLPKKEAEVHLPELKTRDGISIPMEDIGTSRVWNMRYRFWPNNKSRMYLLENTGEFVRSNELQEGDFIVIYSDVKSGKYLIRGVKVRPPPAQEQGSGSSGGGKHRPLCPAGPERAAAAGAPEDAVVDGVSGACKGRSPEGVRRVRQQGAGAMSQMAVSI

ABI5 = assay: In planta two-hybrid study; type: binding

## CC1=CC(=O)CC(C)(C)C1(O)/C=C/C(C)=C\C(=O)O (stereo not shown) [ABA]
[1]
  ABRC1-GUS reporter induction by ABA treatment: highly induced
[2]
  ABRC1-GUS reporter induction by ABA treatment: highly induced

B1: OsFCA: Rice FCA protein, nuclear RNA-binding protein, SEQ ID NO: 1 (protein, listed as Oryza sativa)
chain: MHRGGDRSTDPSSGPAPGSRGGGDGRFGRGPSRWSSGGGGGGSGSPPHRFSRGGGGGGGDGGGGGGGGGRFHPYRGPSDHSGGGGYRSGGGGEYGEPGSGPRHRYGSGRGDHSDHDNRNNYVKLFIGSVPRTATEDDVRPLFEEHGDVVEVALIKDRKTGEQQGCCFVKYATSEEAERAIRALHNQYTLPGAMGPIQVRYADGERERHGAIEHKLFVASLNKQATAKEIEEIFAPYGHVEDVYIMKDGMRQSRGCGFVKFSSREPALAAMSALSGNYVMRGCEQPLIIRFADPKRPRPGGSRGGPAFGGPGFSPRSDAALVIRPTANLDEPRGRHMPPDSWHPSSPRSAPHQFNNFGSDNPMAPKGSTVTSTTDTATFRPQMFSGNGSLSSQTAVPSSSHMGMNPPPMAQGHHLGGQQIPPLQKLPGLPQNFPVQLQNNQLGQPLQGPAQQIGQLQVPQSMGPGSFGQNRLSGQLPVSQPLMQQNASVSAVQVPSAVSNSMQAIPGQQHLPSNVAPQMLQQPVQQMPSQAPQLLLQQQAALQSSYQSSQQAIYQLQQQLQLMQQQQQSNLNHQQPTQGQPVQSSNPGAPNAIIPSNINTIPQQATSPAVPLTCNWTEHTSPEGFKYYYNSITRESKWDKPEEYVLYEQQQQQQQQQKLLLLQQHKQKLAMQQLQSPPQAQTHPAMQPVQQIPQAQQGQQQMQMKQQELNYTQLQTPGAIDPSRIQQGIQSAQERAWKS
VP1
  Interaction with VP1: interacts with VP1
ABI5
  Interaction with ABI5: not with ABI5 directly
